Where two headings read alike, the source gives them in different places.
How the values were obtained:
5-HT2CR = biological target: T1, 5-HT2CR (Rattus norvegicus, UniProt P08909); assay: Radioligand binding at 5-HT2C on rat frontal cortex membranes; conditions: for selectivity 5-HT2/5-HT1A: Antilog [pKi (5-HT1AR) – pKi (5-HT2CR)]; for Ki: rat frontal cortex membranes, [3H]mesulergine, read-out: 5-HT2C pKi ± SEM (converted)
T1 construct: from tissue; host or cells: frontal cortex of male Sprague-Dawley rats
T1 sequence (P08909 33-460): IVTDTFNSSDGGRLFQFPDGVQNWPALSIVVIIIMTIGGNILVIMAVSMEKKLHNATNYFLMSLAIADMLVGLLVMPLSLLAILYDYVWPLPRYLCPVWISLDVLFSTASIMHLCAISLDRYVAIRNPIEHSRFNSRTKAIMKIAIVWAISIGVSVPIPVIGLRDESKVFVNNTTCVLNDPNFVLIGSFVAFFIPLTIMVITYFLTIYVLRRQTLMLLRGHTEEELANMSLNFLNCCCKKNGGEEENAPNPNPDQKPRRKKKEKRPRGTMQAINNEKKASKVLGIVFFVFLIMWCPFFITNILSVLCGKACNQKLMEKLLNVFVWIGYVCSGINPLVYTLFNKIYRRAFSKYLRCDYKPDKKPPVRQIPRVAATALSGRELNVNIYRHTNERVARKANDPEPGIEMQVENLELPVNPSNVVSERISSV
Method: (§1) Male Sprague–Dawley rats were decapitated and their brains removed and placed on ice. The hippocampi (for the functional 5-HT1A receptor assay) or frontal cortexes (for the competitive 5-HT2A and 5-HT2C receptor assays) were dissected and homogenized with a glass homogenizer in 30 vol. ice-cold TED buffer (50 mMTris-HCl, 1 mM EDTA, 1 mM dithiotheritol, pH 7.4). Next, the homogenate was centrifuged at 21 000g for 30 min at 4 °C. The pellet was suspended in 30 vol TED buffer (pH 7.4) and incubated in a water bath for 10 min at 37 °C to remove endogenous ligands. The suspension was centrifuged again at 21 000g for 30 min at 4 °C. The pellet was resuspended in 30 vol TED buffer (pH 7.4) and the centrifugation step was repeated. The final pellet was suspended in 10 vol 50 mM Tris-HCl (pH 7.4) and stored at −80 °C until use.[47]
The 5-HT2A assay was performed according to a previously described protocol with some modifications.[48] […] Nonspecific binding was determined in the presence of 10 μM mianserin. For the 5-HT2C assay, the frontal cortex homogenates (250 μg protein/mL) were incubated in triplicate with 1 nM [^3H]mesulergine for 60 min at 36 °C in a 50 mM Tris-HCl (pH 7.4) buffer containing 0.1% ascorbate, 10 mM MgCl2, 10 μM pargyline, 100 nM spiperone, and increasing concentrations (10^–10–10^–5 M) of the compound tested. After incubation, the reaction mixture was deposited onto UniFilter-96 GF/B plates, with the aid of a FilterMate-96 Harvester. The filter plates were presoaked with 0.4% PEI for 1 h. Next, each filter well was washed with 1.75 mL of 50 mM Tris-HCl (pH 7.4) and left to dry on a heating block set to 50 °C for 2 h. Then, 45 μL of Microscint-20 scintillation fluid was added to each filter well and left to equilibrate overnight. The filter-bound radioactivity was counted in a MicroBeta^2 Microplate Counter. Curves were fitted with a one-site sigmoidal dose–response equation and pKi for each compound was calculated with the Cheng-Pursoff equation. Results were analyzed with one-way ANOVA followed by the Bonferroni’s posthoc test. The results are expressed as means ± SEM of three independent experiments.

5-HT1AR = biological target: T2, 5-HT1AR (Rattus norvegicus, UniProt P19327); assay: [35S]GTPγS functional 5-HT1A assay in rat hippocampal membranes; assay type: biochemical; conditions: for agonist classification by Emax vs serotonin: [35S]GTPγS binding, partial = half (or lower) as efficacious as serotonin; for Emax: basal 5-HT1AR activation set to 100%, read-out: 5-HT1A Emax (%) ± SEM; for eudismic ratio (EC50S/R): S vs R optical isomer
T2 construct: from tissue; hippocampus per the main-text methods
T2 sequence (P19327 1-422): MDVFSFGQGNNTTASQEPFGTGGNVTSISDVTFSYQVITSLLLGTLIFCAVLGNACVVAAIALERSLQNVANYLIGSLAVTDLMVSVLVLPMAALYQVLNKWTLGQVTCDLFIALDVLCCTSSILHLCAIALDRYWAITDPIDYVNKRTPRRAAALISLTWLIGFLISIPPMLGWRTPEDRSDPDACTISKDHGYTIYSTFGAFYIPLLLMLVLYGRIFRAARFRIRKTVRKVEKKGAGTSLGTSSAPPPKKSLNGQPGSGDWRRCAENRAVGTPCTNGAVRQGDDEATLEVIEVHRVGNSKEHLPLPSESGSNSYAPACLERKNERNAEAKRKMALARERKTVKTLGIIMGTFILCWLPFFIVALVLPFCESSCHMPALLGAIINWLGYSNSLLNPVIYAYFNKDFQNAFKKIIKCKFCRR
Method: as §1
The [^35S]GTPγS assay was performed according to the method described previously.[49] […] Nonspecific binding was determined with 100 μM of unlabeled GTPγS. The reaction mixture was incubated for 90 min at 36 °C in a volume of 250 μL. […] Next, 96-well Unifilter Plates (PerkinElmer, USA) were presoaked for 1 h with 50 mM Tris-HCl (pH = 7.4) before harvesting. The reaction was terminated by vacuum filtration onto filter plates with the Filter Mate Harvester (PerkinElmer, USA). The samples were then rapidly washed with 2 mL of 50 mM Tris-HCl (pH = 7.4) buffer. The filter plates were dried for 2 h at 50 °C. After drying, 45 μL of EcoScint-20 scintillant (PerkinElmer, USA) was added to every well. The radioactivity was counted in a Trilux MicroBeta^2 counter (PerkinElmer, USA). The data were analyzed with GraphPad Prism 5.0 software (GraphPad Software, San Diego California USA, www.graphpad.com). To determine whether compound-stimulated [^35S]GTPγS binding involved 5-HT1A receptors, two protocols were used.
The curves were fitted with a one-site nonlinear regression model. Efficacy (Emax) and potency (pEC50) were calculated from […] from three separate experiments and expressed as the means ± SEM. […] The differences in compound potency and efficacy were evaluated with one-way ANOVA followed by the Bonferroni’s post-hoc test. The baseline G-protein stimulation was set at 100%. One, two, or three symbols represent statistical significance of 0.05, 0.01, and 0.001, respectively.

[1] = rat hippocampal membranes, [35S]GTPγS, three independent experiments, read-out: 5-HT1A pEC50 ± SEM (converted)

| SMILES | selectivity 5-HT2/5-HT1A (5-HT2CR) | Ki (5-HT2CR) | agonist classification by Emax vs serotonin (5-HT1AR) | EC50 (5-HT1AR; [1]) | Emax (5-HT1AR; rat hippocampal membranes) | eudismic ratio (EC50S/R) (5-HT1AR; [35S]GTPγS) | EC50 (5-HT1AR; [35S]GTPγS functional assay, read-out: EC50) | functional activity of (S)-1 compared with racemate 1 (5-HT1AR) |
| --- | --- | --- | --- | --- | --- | --- | --- | --- |
| Cn1cncc1-c1ccccc1OCCNC[C@@H]1COC(c2ccccc2)(c2ccccc2)O1 [(R)-2, N-((2,2-Diphenyl-1,3-dioxolan-4-yl)methyl)-2-(2-(1-methyl-1H-imidazol-5-yl)phenoxy)ethan-1-ammonium hydrogenoxalate] | 105 | 1.26 µM | partial agonists | 0.0631 µM | 143 ± 3.6% |  |  |  |
| c1ccc(C2(c3ccccc3)OCC(CNCCOc3ccccc3-c3ccncc3)O2)cc1 (racemic) [rac-1, N-[(2,2-diphenyl-1,3-dioxolan-4-yl)methyl]-2-[2-(pyridin-4-yl)phenoxy]ethan-1-ammonium hydrogenoxalate] | 40 | 0.363 µM | partial agonists |  | 151 ± 4.2% | 4.0 | 0.0921 µM |  |
| Cn1cncc1-c1ccccc1OCCNC[C@H]1COC(c2ccccc2)(c2ccccc2)O1 [(S)-2, N-((2,2-Diphenyl-1,3-dioxolan-4-yl)methyl)-2-(2-(1-methyl-1H-imidazol-5-yl)phenoxy)ethan-1-ammonium hydrogenoxalate] | 78 | 0.316 µM | full agonists | 0.0251 µM | 175 ± 2.7% |  |  |  |
| Cn1cncc1-c1ccccc1OCCNCC1COC(c2ccccc2)(c2ccccc2)O1 (racemic) [rac-2, N-((2,2-diphenyl-1,3-dioxolan-4-yl)methyl)-2-(2-(1-methyl-1H-imidazol-5-yl)phenoxy)ethan-1-ammonium hydrogenoxalate] | 45 | 0.331 µM | full agonists | 0.0398 µM | 184 ± 2.7% | 2.6 |  |  |
| c1ccc(C2(c3ccccc3)OC[C@H](CNCCOc3ccccc3-c3ccncc3)O2)cc1 [(S)-1, N-[(2,2-Diphenyl-1,3-dioxolan-4-yl)methyl]-2-[2-(pyridin-4-yl)phenoxy]ethan-1-ammonium hydrogenoxalate] | 102 | 0.955 µM | partial agonists | 0.0158 µM | 138 ± 2.9% |  |  | 6 fold |
| c1ccc(C2(c3ccccc3)OC[C@@H](CNCCOc3ccccc3-c3ccncc3)O2)cc1 [(R)-1, N-[(2,2-Diphenyl-1,3-dioxolan-4-yl)methyl]-2-[2-(pyridin-4-yl)phenoxy]ethan-1-ammonium hydrogenoxalate] | 204 | 0.912 µM | partial agonists | 0.0631 µM | 158 ± 5.9% |  |  |  |
